According to patent US20090170178A1, “Cell stimulating device and cell stimulating method” (priority 2003, published 2009):

Experiments:
Format in all cases: cell-based, mouse
[1] = test system: cultured granule cells (release of NRG); experiment: Release of NRG into conditioned medium, read by CREB phosphorylation in granule cells; settings: living cultured granule cells
Method: In the case of FIG. 6D, CREB phosphorylation following stimulation of each conditioned medium was confirmed using cerebellar granule cells. Serum-starved cerebellar granule cells were treated (for 5 to 10 minutes) with conditioned media that had been recovered from the culture products of pontine nuclei neurons and granule cells. The conditioned medium recovered from pontine nuclei neurons was used for stimulation in the cases of a, b, and c. In the cases of d, e, and f, a conditioned medium was prepared from the culture product of granule cells.
Stimulated granule cells were immobilized, followed by staining with a phospho-CREB antibody. The soluble forms that had been released after PMA stimulation (60 minutes) were concentrated and added to cultured granule cells. In panels c and f, the conditioned media should contain endogenous NRG and recombinant NRG. The difference between panels b and e indicates a function of NRG cleaved from recombinant mNRG. FIGS. 6E and 6F show the results of identification of an amino acid sequence that is necessary for proteolysis with the use of an ErbB and CREB phosphorylation assay system. The […] sequence was located above extracellular portions of transmembrane domains that were aligned in parallel. When the sequence was subjected to deletion or mutation of lysine to glycine, proteolysis efficiency was inhibited as shown in FIG. 6F. […]

[2] = test system: NMDA receptor NR2C subunit mRNA in cultured granule cells
[3] = test system: GABAA receptor β2 subunit mRNA in cultured granule cells; settings: stimulation at 1.0 and 100 Hz; FIG. 9C; MK801 25 μM, CNQX 10 μM

| Compound | Obvious release of NRG [1] | Increase of NR2C transcription/expression [2] | NR2C transcription / expression of NR2C mRNA ([2]; level increased at 1 and 100 Hz, FIG. 9C, MK801 25 μM) | β2 transcription [3] |
| --- | --- | --- | --- | --- |
| [Cl-].[K+] [KC1] | not observed | – | – | – |
| C[C@]12N[C@H](Cc3ccccc31)c1ccccc12 [MK801] | – | blocked NR2C elevation in a particularly strong manner | strongly blocked | blocked |
| N#Cc1cc2[nH]c(=O)c(=O)[nH]c2cc1[N+](=O)[O-] [CNQX] | – | – | – | blocked |
